According to US10421768B2, “Method of biotransformation of benzopyrone compounds into the corresponding phosphate-conjugated derivatives” (National Taiwan University, priority 2016, dated 2019):
Values after ≈ are worked out from the molar mass of the structure shown. Where two headings read alike, the source gives them in different places.

How the values were obtained:
[1] = cited from earlier work; for water solubility relative to aglyconic form of isoflavones: derivatives reported in several studies; for solubility: in water, stated in text without method; for solubility in water (in words): qualitative statement (b7: according to Merck Index)
[2] = Solubility of isoflavone phosphate conjugates and aglycones in DI water (25° C.); assay type: physicochemical; settings: for solubility relative to genistein and daidzein: 25° C. water, phosphate vs aglycone; for Solubility enhancement ratio: phosphate conjugate vs aglycone
Description: This can increase the application of isoflavones in pharmaceuticals, food, and cosmetics.

[3] = DI water, 25° C., read-out: Water solubility

SMILES | water solubility relative to aglyconic form of isoflavones [1] | solubility [1] | solubility in water (in words) [1] | further results
O=c1c(-c2ccc(O)cc2O)coc2cc(O)cc(O)c12 [2′-hydroxy genistein] | higher water solubility | – | – | –
O=c1c(-c2ccc(O)cc2)coc2cc(O)c(O)c(O)c12 [6-hydroxy genistein] | higher water solubility | – | – | –
O=c1c(-c2ccc(O)cc2)coc2c(O)c(O)cc(O)c12 [8-hydroxy genistein] | higher water solubility | – | – | –
O=c1c(-c2ccc(O)cc2)coc2cc(O)ccc12 [Daidzein, daidzein] | – | 8.2 µg/mL (≈ 32.3 µM) | practically insoluble in water | solubility ([2]; 25 °C, water): 1.36 µg/mL (≈ 5.35 µM)
O=c1c(-c2ccc(O)cc2)coc2cc(OP(=O)(O)O)ccc12 [Daidzein-7-O-phosphate, daidzein-7-O-phosphate] | – | – | – | solubility relative to genistein and daidzein [2]: ten million times higher; solubility [2, 3]: 179000 µg/mL (≈ 536000 µM); Solubility enhancement ratio ([2]; DI water, 25° C.): 1.3 × 10^5
O=c1c(-c2ccc(O)cc2)coc2cc(O)cc(O)c12 [Genistein, genistein] | – | 0.8 µg/mL (≈ 2.96 µM) | practically insoluble in water | solubility [2, 3]: 0.82 µg/mL (≈ 3.03 µM)
O=c1c(-c2ccc(O)cc2)coc2cc(OP(=O)(O)O)cc(O)c12 [Genistein-7-O-phosphate, genistein-7-O-phosphate] | – | – | – | solubility relative to genistein and daidzein [2]: ten million times higher; solubility [2, 3]: 100000 µg/mL (≈ 286000 µM); Solubility enhancement ratio ([2]; DI water, 25° C.): 1.2 × 10^5
O=c1c(O)c(-c2ccc(O)cc2)oc2cc(O)cc(O)c12 [Kaempferol, kaempferol] | – | – | barely insoluble in water | –
O=C1C[C@@H](c2ccc(O)cc2)Oc2cc(O)cc(O)c21 [Naringenin, naringenin] | – | 45 µg/mL (≈ 165 µM) | – | –
O=c1c(-c2ccc(O)cc2)coc2cc(OS(=O)(=O)O)ccc12 [daidzein-7-O-sulfate] | higher water solubility | – | – | –
COc1ccc([C@@H]2CC(=O)c3c(O)cc(O)cc3O2)cc1O [hesperetin] | – | 1.4 µg/mL (≈ 4.63 µM) | – | –
O=c1c(O)c(-c2ccc(O)c(O)c2)oc2cc(O)cc(O)c12 [quercetin] | – | – | barely insoluble in water | –
